The values that follow come from paper PMC6792352, “Limited Chemical Structural Diversity Found to Modulate Thyroid Hormone Receptor in the Tox21 Chemical Library” (Environmental Health Perspectives, 2019).

Where a name gives a salt, the structure may show the parent alone. Non-standard residues stand in square brackets, D forms with d. Residues, ends and D or L forms follow the SMILES beside them. Orn = NCCC[C@H](N)C(=O)O

The first series is described as follows: in vitro. The settings on record: rat, gh3-tre-luc cells, AC50 (uM) modified / 1000.
Turning to `COc1ccccc1N1CCN(CCCCNC(=O)c2ccc(-c3ccc(C(C)=O)cc3)cc2)CC1` [GR 103691], the cytotoxic concentration (CC50) at 24 h is over 50 µM.

The compound `CCN(C(=O)c1cc(C)cc(OC[C@H](C)Nc2ccncc2)c1)C(C)C` [GW473178E methyl benzene sulphonic acid] gave a half-maximal cytotoxic concentration (CC50) at 24 h of over 60 µM. For the compound `NCC1(CC(=O)O)CCCCC1` [Gabapentin], the cytotoxic concentration (CC50) at 24 h was over 20 µM. `CCOC(=O)c1ccc(OC(=O)CCCCCNC(=N)N)cc1` [Gabexate mesilate] yielded a half-maximal cytotoxic concentration (CC50) at 24 h of over 20 µM. The same measure, in the same setting: next, `Oc1noc2c1CCNC2` [Gaboxadol]: over 50 µM; `N[C@@H](C=O)[C@@H](O)[C@@H](O)[C@H](O)CO` [Galactosamine hydrochloride]: over 90 µM. In the case of `O=C[C@H](O)[C@@H](O)[C@@H](O)[C@H](O)CO` [Galactose], the CC50 at 24 h was over 50 µM.

Take `COc1ccc2c3c1O[C@H]1C[C@@H](O)C=C[C@@]31CCN(C)C2` [Galanthamine]: the half-maximal cytotoxic concentration (CC50) at 24 h is over 50 µM. The compound `CC[N+](CC)(CC)CCOc1cccc(OCC[N+](CC)(CC)CC)c1OCC[N+](CC)(CC)CC` [Gallamine triethiodide] displayed a cytotoxic concentration (CC50) at 24 h of over 50 µM. On the same count and under the same terms, next, `O=C(O)c1cc(O)c(O)c(O)c1` [Gallic acid]: 90.1 µM; `COc1ccc(CCN(C)CCCC(C#N)(c2cc(OC)c(OC)c(OC)c2)C(C)C)cc1OC` (stereo not drawn) [Gallopamil hydrochloride]: 21 µM. Same read-out and setting: next, `CCCCC/C=C\C/C=C\C/C=C\CCCCC(=O)O` [Gamolenic acid]: over 50 µM; `Nc1nc(O)c2ncn(COC(CO)CO)c2n1` [Ganciclovir]: over 20 µM; `C[C@H]1NCc2cc(-c3ccc4c(=O)c(C(=O)O)cn(C5CC5)c4c3OC(F)F)ccc21` [Garenoxacin mesylate hydrate]: over 50 µM.

`COc1c(N2CCNC(C)C2)c(F)cc2c(=O)c(C(=O)O)cn(C3CC3)c12` (stereo not drawn) [Gatifloxacin] displayed a CC50 at 24 h of over 50 µM. The same measure, in the same setting: next, `CC(C)=CCC/C(C)=C/CC/C(C)=C/CCC(=O)OC/C=C(\C)CCC=C(C)C` [Gefarnate]: over 50 µM.

`COc1cc2ncnc(Nc3ccc(F)c(Cl)c3)c2cc1OCCCN1CCOCC1` [Gefitinib] yielded a CC50 at 24 h of 8.92 µM.

Compound `Cc1cc(=O)c2c(O)c3c(O)cc(=O)c4c3c3c(cc(O)c1c23)C(C)(C)C=4O` [Geliomycin] yielded a cytotoxic concentration (CC50) at 24 h of 0.889 µM. Against the preceding compound, the CC50 at 24 h is about 10-fold lower. Same read-out and setting: the same measure for `Nc1ccn([C@@H]2O[C@H](CO)[C@@H](O)C2(F)F)c(=O)n1` [Gemcitabine hydrochloride]: 0.153 µM. Still for that read-out and setting: the same measure for `Cc1ccc(C)c(OCCCC(C)(C)C(=O)O)c1` [Gemfibrozil]: over 90 µM.

`CO/N=C1\CN(c2nc3c(cc2F)c(=O)c(C(=O)O)cn3C2CC2)CC1CN` (stereo not drawn) [Gemifloxacin mesylate] returned a 50% cytotoxic concentration (CC50) at 24 h of over 50 µM. `CC(C)=CCC/C(C)=C/C(=O)O` [Geranic acid] showed a half-maximal cytotoxic concentration (CC50) at 24 h of over 90 µM.

Regarding `CC(C)=CCC/C(C)=C/CO` [Geraniol], the half-maximal cytotoxic concentration (CC50) at 24 h is over 90 µM. Turning to `CC(=O)OC/C=C(\C)CCC=C(C)C` [Geranyl acetate], the cytotoxic concentration (CC50) at 24 h was over 90 µM. The compound `CCCC(=O)OC/C=C(\C)CCC=C(C)C` [Geranyl butyrate] gave a CC50 at 24 h of over 90 µM. `C/C=C(\C)C(=O)OC/C=C(\C)CCC=C(C)C` [Geranyl tiglate] registered a CC50 at 24 h of over 90 µM. The compound `C#C[C@]1(O)C=C[C@H]2[C@@H]3CCC4=CC(=O)CC[C@@H]4[C@H]3CC[C@@]21CC` [Gestodene] came in with a CC50 at 24 h of over 50 µM. In the case of `C#C[C@]1(O)CC[C@H]2[C@@H]3CCC4=CC(=O)CCC4=C3C=C[C@@]21CC` [Gestrinone], the cytotoxic concentration (CC50) at 24 h was over 50 µM.

In the case of `C=C1C[C@]23C[C@@]1(O)CC[C@H]2[C@@]12C=C[C@H](O)[C@@](C)(C(=O)O1)[C@H]2[C@@H]3C(=O)O` [Gibberellic acid], the half-maximal cytotoxic concentration (CC50) at 24 h was over 90 µM. With `Oc1cc(O)c(Cl)cn1` [Gimeracil], the CC50 at 24 h is over 50 µM. Still for that read-out and setting: the same measure for `C#CCOc1ccc2c(C)cc(=O)oc2c1` [Giparmen]: over 50 µM; for `O=C(OCC(O)CO)c1ccccc1Nc1ccnc2cc(Cl)ccc12` (stereo not drawn) [Glafenine hydrochloride]: over 20 µM; for `CCC1=C(C)CN(C(=O)NCCc2ccc(S(=O)(=O)NC(=O)N[C@H]3CC[C@H](C)CC3)cc2)C1=O` [Glimepiride]: over 50 µM. On the same count and under the same terms, next, `COc1ccc2c(c1)C(=O)N(CCc1ccc(S(=O)(=O)NC(=O)NC3CCCCC3)cc1)C(=O)C2(C)C` [Gliquidone]: over 20 µM. In the case of `Cc1cc(C(=O)NCCc2ccc(S(=O)(=O)NC(=O)NN3CCCCCC3)cc2)no1` [Glisoxepide], the CC50 at 24 h is over 50 µM. Same read-out and setting: next, `O=C1O[C@H](CO)[C@@H](O)[C@H](O)[C@H]1O` [Gluconolactone]: over 90 µM; `N[C@H]1C(O)O[C@H](CO)[C@@H](O)[C@@H]1O` (stereo partly drawn) [Glucosamine hydrochloride]: over 50 µM. `NC(=O)[C@H]1O[C@@H](O)[C@H](O)[C@@H](O)[C@@H]1O` [Glucuronamide]: the CC50 at 24 h was over 50 µM. `O=CCCCC=O` [Glutaraldehyde] registered a CC50 at 24 h of over 90 µM. As for `O=C1CCCC(=O)O1` [Glutaric anhydride], the cytotoxic concentration (CC50) at 24 h was over 90 µM. On the same count and under the same terms, the same measure for `N[C@@H](CCC(=O)N[C@@H](CS)C(=O)NCC(=O)O)C(=O)O` [Glutathione]: over 50 µM. Still for that read-out and setting: next, `COc1ccc(Cl)cc1C(=O)NCCc1ccc(S(=O)(=O)NC(=O)NC2CCCCC2)cc1` [Glybenclamide]: over 90 µM; `CC(C)(C)c1nnc(NS(=O)(=O)c2ccccc2)s1` [Glybuzole]: over 50 µM; `C=CCOCC(O)CO` (stereo not drawn) [Glycerol 1-allylether]: over 90 µM. With `CCCCCCCCCCCCCCCCCC(=O)OCC(O)CO` (stereo not drawn) [Glycerol 1-monostearate], the cytotoxic concentration (CC50) at 24 h was over 50 µM. On the same count and under the same terms, next, `OCC(O)CO` [Glycerol]: over 90 µM; `CCCCCCCC(=O)OCC(O)CO` (stereo not drawn) [Glyceryl monooctanoate]: over 90 µM; `CCCCCCCC/C=C\CCCCCCCC(=O)OCC(O)CO` (stereo not drawn) [Glyceryl monooleate]: over 90 µM. In the case of `CCCCCC[C@@H](O)C/C=C\CCCCCCCC(=O)OCC(O)CO` (stereo partly drawn) [Glyceryl monoricinoleate], the cytotoxic concentration (CC50) at 24 h was over 90 µM. The same measure, in the same setting: the same measure for `OCC1CO1` (stereo not drawn) [Glycidol]: over 90 µM; for `C=C(C)C(=O)OCC1CO1` (stereo not drawn) [Glycidyl methacrylate]: over 90 µM; for `C[N+](C)(C)CC1CO1` (stereo not drawn) [Glycidyl trimethylammonium chloride]: over 90 µM. Same read-out and setting: the same measure for `NCC(=O)O` [Glycine]: over 50 µM; for `O=C(NN1CCCC1)NS(=O)(=O)c1ccc(Cl)cc1` [Glyclopyramide]: over 50 µM; for `O=S1OCCO1` [Glycol sulfite]: over 100 µM. `O=C(O)CO` [Glycolic acid]: the CC50 at 24 h was over 90 µM. `O=C1NC2NC(=O)NC2N1` (stereo not drawn) [Glycoluril]: the CC50 at 24 h is over 90 µM. `Cc1ccc(S(=O)(=O)NC(=O)NC2CCCCC2)cc1` [Glycyclamide]: the 50% cytotoxic concentration (CC50) at 24 h was over 50 µM. The same measure, in the same setting: next, `CC1(C)C2CC[C@]3(C)[C@H](C(=O)C=C4[C@@H]5C[C@@](C)(C(=O)O)CC[C@]5(C)CC[C@]43C)[C@@]2(C)CC[C@@H]1O[C@H]1O[C@H](C(=O)O)[C@@H](O)[C@H](O)[C@H]1O[C@@H]1O[C@H](C(=O)O)[C@@H](O)[C@H](O)[C@H]1O` (stereo partly drawn) [Glycyrrhizic acid, monosodium salt]: over 50 µM. Still for that read-out and setting: the same measure for `Cc1ccc(S(=O)(=O)NC(=O)NC2CCCCCCC2)cc1` [Glyoctamide]: over 50 µM; for `O=CC=O` [Glyoxal]: over 90 µM.

`ON=CC=NO` [Glyoxime] registered a CC50 at 24 h of over 90 µM. Take `COc1ccc(S(=O)(=O)Nc2nnc(CC(C)C)s2)cc1` [Glysobuzole]: the cytotoxic concentration (CC50) at 24 h was over 50 µM. `CC(C)C[C@H](NC(=O)CNC(=O)[C@H](Cc1ccc(O)cc1)NC(=O)[C@H](CO)NC(=O)[C@H](Cc1c[nH]c2ccccc12)NC(=O)[C@H](Cc1cnc[nH]1)NC(=O)[C@@H]1CCC(=O)N1)C(=O)N[C@@H](CCCNC(=N)N)C(=O)N1CCC[C@H]1C(=O)NCC(N)=O` [Gonadorelin hydrochloride] came in with a CC50 at 24 h of over 50 µM.

In turn, `CC(C)C[C@H](NC(=O)[C@@H](COC(C)(C)C)NC(=O)[C@H](Cc1ccc(O)cc1)NC(=O)[C@H](CO)NC(=O)[C@H](Cc1c[nH]c2ccccc12)NC(=O)[C@H](Cc1cnc[nH]1)NC(=O)[C@@H]1CCC(=O)N1)C(=O)N[C@@H](CCCNC(=N)N)C(=O)N1CCC[C@H]1C(=O)NNC(N)=O` [Goserelin acetate] came in with a CC50 at 24 h of over 50 µM.

Consider `Cc1cc2c(C(C)C)c(O)c(O)c(C=O)c2c(O)c1-c1c(C)cc2c(C(C)C)c(O)c(O)c(C=O)c2c1O` [Gossypol], for which the CC50 at 24 h was found to be 8.84 µM. The same measure, in the same setting: the same measure for `CC(C)C[C@@H]1NC(=O)[C@H](CCCN)NC(=O)[C@H](C(C)C)NC(=O)[C@@H]2CCCN2C(=O)[C@@H](Cc2ccccc2)NC(=O)[C@H](CC(C)C)NC(=O)[C@H](CCCN)NC(=O)[C@H](C(C)C)NC(=O)[C@@H]2CCCN2C(=O)[C@@H](Cc2ccccc2)NC1=O` [Gramicidin S] (cyclo(L[dF]PV[Orn]L[dF]PV[Orn])): 3.05 µM; for `CN1[C@@H]2CCC[C@H]1C[C@@H](NC(=O)c1nn(C)c3ccccc13)C2` [Granisetron hydrochloride]: over 50 µM; for `Cc1c(F)c(N2CCNC(C)C2)cc2c1c(=O)c(C(=O)O)cn2C1CC1` (stereo not drawn) [Grepafloxacin hydrochloride]: over 50 µM.

The same series, now with this note: rat, gh3-tre-luc cells, AC50 (uM) modified / 1000, Tox21_110001=Tox21_111641; viability, 1 nM T3 present, 24 h.
Turning to `CCC1(c2ccccc2)CCC(=O)NC1=O` (stereo not drawn) [Glutethimide], the cytotoxic concentration (CC50) at 24 h was over 50 µM.

The series is the same for the next values; noted with them: rat, gh3-tre-luc cells, AC50 (uM) modified / 1000, Tox21_110001=Tox21_112264; viability, 1 nM T3 present, 24 h.
For the compound `CC(=O)[C@H]1CC[C@H]2[C@@H]3CC[C@H]4C[C@](C)(O)CC[C@]4(C)[C@H]3CC[C@]12C` [Ganaxolone], the 50% cytotoxic concentration (CC50) at 24 h is over 50 µM.

Still in this series, the particulars now being: rat, gh3-tre-luc cells, AC50 (uM) modified / 1000, Tox21_110001=Tox21_300220; viability, 1 nM T3 present, 24 h.
For the compound `N#Cc1ccc(N(CC(N)=O)CC(F)(F)F)cc1C(F)(F)F` [GSK232420A], the half-maximal cytotoxic concentration (CC50) at 24 h was over 90 µM.

Broadly, the CC50 is the concentration giving 50% cytotoxicity. A low value points to harm at low concentration.
